The record followed here is US20100317850A1 (priority 2008, published 2010).

The subject of this assay is Aβ42 production. Put plainly: Quantification of Aβ peptide in culture of neurons from rat fetus brain (Aβ ELISA). It counts as cell-based. Particulars: Neuron, 72 h; rat primary neuronal culture (cerebral cortex, embryonic day 18 Wistar rats); medium collected three days after addition of the compound; Aβx-42 ELISA; read-out: Aβ42 production reducing effect IC50. The procedure:
Quantification of Aβ Peptide in Culture of Neurons from Rat Fetus Brain
(1) Rat Primary Neuronal Culture
Primary neuronal cultures were prepared from the cerebral cortex of embryonic day 18 Wistar rats (Charles River Japan, Yokohama, Japan). Specifically, the embryos were aseptically removed from pregnant rats under ether anesthesia. The brain was isolated from the embryo and immersed in an ice-cold L-15 medium (such as Invitrogen Corp. Cat #11415-064, Carlsbad, Calif., USA, or SIGMA L1518). The cerebral cortex was collected from the isolated brain under a stereoscopic microscope. The cerebral cortex fragments collected were enzymatically treated in an enzyme solution containing 0.25% trypsin (Invitrogen Corp. Cat #15050-065, Carlsbad, Calif., USA) and 0.01% DNase (Sigma D5025, St. Louis, Mo., USA) at 37° C. for 30 minutes to disperse the cells. Here, the enzymatic reaction was stopped by adding inactivated horse serum to the solution. The enzymatically treated solution was centrifuged at 1,500 rpm for five minutes to remove the supernatant. 5 to 10 mL of a medium was added to the resulting cell mass. Neurobasal medium (Invitrogen Corp. Cat #21103-049, Carlsbad, Calif., USA) supplemented with 2% B27 supplement (Invitrogen Corp. Cat #17504-044, Carlsbad, Calif., USA), 25 μM 2-mercaptoethanol (2-ME, WAKO Cat #139-06861, Osaka, Japan), 0.5 mM L-glutamine (Invitrogen Corp. Cat #25030-081, Carlsbad, Calif., USA), and Antibiotics-Antimycotics (Invitrogen Corp. Cat #15240-062, Carlsbad, Calif., USA) was used as the medium (Neurobasal/B27/2-ME). However, the above Neurobasal medium not supplemented with 2-ME (Neurobasal/B27) was used for the assay. The cells were redispersed by mild pipetting of the cell mass to which the medium was added. The cell dispersion was filtered through a 40-μm nylon mesh (Cell Strainer, Cat #35-2340, Becton Dickinson Labware, Franklin Lakes, N.J., USA) to remove the remaining cell mass, and thus a neuronal cell suspension was obtained. The neuronal cell suspension was diluted with the medium and then plated in a volume of 100 μL/well at an initial cell density of 5×10^5 cells/cm^2 in a 96-well polystyrene culture plate pre-coated with poly-L or D-lysine (Falcon Cat #35-3075, Becton Dickinson Labware, Franklin Lakes, N.J., USA coated with poly-L-lysine using the method shown below, or BIOCOAT™ cell environments Poly-D-lysine cell ware 96-well plate, Cat #35-6461, Becton Dickinson Labware, Franklin Lakes, N.J., USA). Poly-L-lysine coating was carried out as follows. 100 μg/mL of a poly-L-lysine (SIGMA P2636, St. Louis, Mo., USA) solution was aseptically prepared with a 0.15 M borate buffer (pH 8.5). […] of the solution was added to the 96-well polystyrene culture plate and incubated at room temperature for one or more hours or at 4° C. overnight or longer. Thereafter, the coated 96-well polystyrene culture plate was washed with sterile water four or more times, and then dried or rinsed with, for example, sterile PBS or medium, and used for cell plating. The plated cells were cultured in the culture plate at 37° C. in 5% CO2-95% air for one day. Then, the total amount of the medium was replaced with a fresh Neurobasal™/B27/2-ME medium, and then the cells were cultured for further three days.
The drug was added to the culture plate on Day 4 of culture as follows. The total amount of the medium was removed from the wells, and 180 μL/well of Neurobasal medium not containing 2-ME and containing 2% B-27 (Neurobasal/B27) was added thereto. A solution of the test compound in dimethyl sulfoxide (hereinafter abbreviated as DMSO) was diluted with Neurobasal/B27 to a concentration 10-fold higher than the final concentration. 20 μL/well of the dilution was added to and sufficiently mixed with the medium. The final DMSO concentration was 1% or less. Only DMSO was added to the control group.
The cells were cultured for three days after addition of the compound, and the total amount of the medium was collected. […]
A general note: In an ELISA, binding on a coated surface is turned into a signal by an enzyme label.
For the compound `COc1ccc(NC(=O)c2ccc(Cl)cn2)cc1[C@]12CCC[C@H]1CSC(N)=N2` (racemic) [Example 34, (±)-N-[3-((4aR*,7aS*)-2-amino-4a,5,6,7-tetrahydro-4H-cyclopenta[d][1,3]thiazin-7a-yl)-4-methoxyphenyl]-5-chloropyridine-2-carboxamide], the IC50 was 115 nM.
As for `NC1=N[C@@]2(c3cccc(-c4cccnc4F)c3)CN(c3ccccc3)C[C@H]2CS1` (racemic) [Example 36, (±)-(4aR,7aS)-7a-[3-(2-fluoro-pyridin-3-yl)phenyl]-6-phenyl-4,4a,5,6,7,7a-hexahydropyrrolo[3,4-d][1,3]thiazin-2-ylamine], the figure is 384 nM; as for `NC1=N[C@@]2(c3cccc(-c4cccnc4F)c3)CN(c3ncccn3)C[C@H]2CS1` (racemic) [Example 37, (±)-(4aR*,7aS*)-7a-[3-(2-fluoropyridin-3-yl)phenyl]-6-pyrimidin-2-yl-4,4a,5,6,7,7a-hexahydropyrrolo[3,4-d][1,3]thiazin-2-ylamine], 29 nM; as for `NC1=N[C@@]2(c3cc(NC(=O)c4ccc(Cl)cn4)ccc3OC(F)(F)F)CCOC[C@H]2CS1` (racemic) [Example 149], 414 nM.
The figure for `N#Cc1ccc(C(=O)Nc2cc(F)cc([C@]34CCC[C@H]3CSC(N)=N4)c2)nc1` (racemic) [Example 158, (±)-N-[3-((4aR*,7aS*)-2-amino-4a,5,6,7-tetrahydro-4H-cyclopenta[d][1,3]thiazin-7a-yl)-5-fluorophenyl]-5-cyanopyridine-2-carboxamide] is 53 nM; for `NC1=N[C@@]2(c3cc(-c4cccnc4F)ccc3F)CCC[C@H]2CS1` (racemic) [Example 160, (±)-(4aR*,7aS*)-7a-[2-fluoro-5-(2-fluoropyridin-3-yl)phenyl]-4,4a,5,6,7,7a-hexahydrocyclopenta[d][1,3]thiazin-2-ylamine] it is 521 nM; for `NC1=N[C@@]2(c3cccc(-c4cccnc4F)c3)CN(c3ccc(F)cc3)C[C@H]2CS1` (racemic) [Example 226, (±)-(4aR*,7aS*)-6-(4-fluorophenyl)-7a-[3-(2-fluoropyridin-3-yl)phenyl]-4,4a,5,6,7,7a-hexahydropyrrolo[3,4-d][1,3]thiazin-2-ylamine] it is 233 nM.
The figure for `N#Cc1cccc(-c2cccc([C@]34CN(c5cnccn5)C[C@H]3CSC(N)=N4)c2)c1` (racemic) [Example 229, (±)-3′44aR*,7aS*)-2-amino-6-pyrazin-2-yl-4a,5,6,7-tetrahydro-4H-pyrrolo[3,4-d][1,3]thiazin-7a-yl)biphenyl-3-carbonitrile] is 544 nM; for `N#Cc1ccc(C(=O)Nc2cc(Cl)cc([C@]34CCC[C@H]3CSC(N)=N4)c2)nc1` (racemic) [Example 240, (±)-N-[3-((4aR*,7aS*)-2-amino-4a,5,6,7-tetrahydro-4H-cyclopenta[d][1,3]thiazin-7a-yl)-5-chlorophenyl]-5-cyanopyridine-2-carboxamide] it is 39 nM; for `NC1=N[C@@]2(c3cc(-c4cccnc4F)c(F)cc3F)CCCC[C@H]2CS1` (racemic) [Example 245, (±)-(4aR*,8aS*)-8a-[2,4-difluoro-5-(2-fluoropyridin-3-yl)phenyl]-4a,5,6,7,8,8a-hexahydro-4H-benzo[d][1,3]thiazin-2-ylamine] it is 1160 nM.
Consider `NC1=N[C@@]2(c3cc(NC(=O)c4ccc(Cl)cn4)ccc3F)CCC[C@H]2CS1` (relative stereo) [Example 5, (+)-N-[3-((4aR*,7aS*)-2-amino-4a,5,6,7-tetrahydro-4H-cyclopenta[d][1,3]thiazin-7a-yl)-4-fluorophenyl]-5-chloropyridine-2-carboxamide], for which the IC50 worked out at 3 nM.
As for `NC1=N[C@@]2(c3cc(NC(=O)c4ccccn4)ccc3F)CCC[C@H]2CS1` (relative stereo) [Example 6, N-[3-((4aR*,7aS*)-2-amino-4a,5,6,7-tetrahydro-4H-cyclopenta[d][1,3]thiazin-7a-yl)-4-fluorophenyl]pyridine-2-carboxamide], the IC50 is 88 nM.
As for `NC1=N[C@@]2(c3cc(NC(=O)c4ccc(F)cn4)ccc3F)CCC[C@H]2CS1` (relative stereo) [Example 9, N-[3-((4aR*,7aS*)-2-amino-4a,5,6,7-tetrahydro-4H-cyclopenta[d][1,3]thiazin-7a-yl)-4-fluorophenyl]-5-fluoropyridine-2-carboxamide], the figure is 28 nM; as for `N#Cc1ccc(C(=O)Nc2ccc(F)c([C@]34CCCC[C@H]3CSC(N)=N4)c2)nc1` (relative stereo) [Example 19, N-[3-((4aR*,8aS*)-2-amino-4,4a,5,6,7,8-hexahydrobenzo[d][1,3]thiazin-8a-yl)-4-fluorophenyl]-5-cyanopyridine-2-carboxamide], 45 nM; as for `NC1=N[C@@]2(c3cc(NC(=O)c4cnc(OCF)cn4)ccc3F)CCC[C@H]2CS1` (relative stereo) [Example 21, N-[3-((4aR*,7aS*)-2-amino-4a,5,6,7-tetrahydro-4H-cyclopenta[d][1,3]thiazin-7a-yl)-4-fluorophenyl]-5-fluoromethoxypyrazine-2-carboxamide], 13 nM.
In the case of `NC1=N[C@@]2(c3cc(NC(=O)c4ccc(OCF)cn4)ccc3F)CCC[C@H]2CS1` (relative stereo) [Example 23, N-[3-((4aR*,7aS*)-2-amino-4a,5,6,7-tetrahydro-4H-cyclopenta[d][1,3]thiazin-7a-yl)-4-fluorophenyl]-5-fluoromethoxypyridine-2-carboxamide], the IC50 was determined as 10 nM.
As for `N#Cc1ccc(C(=O)Nc2ccc(F)c([C@]34COC[C@H]3CSC(N)=N4)c2)nc1` (relative stereo) [Example 24, N-[3-((4aS*,7aS*)-2-amino-4a,5-dihydro-4H-furo[3,4-d][1,3]thiazin-7a-yl)-4-fluorophenyl]-5-cyanopyridine-2-carboxamide], the figure is 4.3 nM; as for `NC1=N[C@@]2(c3cc(NC(=O)c4cnc(OC(F)F)cn4)ccc3F)COC[C@H]2CS1` (relative stereo) [Example 25, N-[3-((4aS*,7aS*)-2-amino-4a,5-dihydro-4H-furo[3,4-d][1,3]thiazin-7a-yl)-4-fluorophenyl]-5-difluoromethoxypyrazine-2-carboxamide], 6.1 nM; as for `NC1=N[C@@]2(c3cc(NC(=O)c4ccc(Cl)cn4)ccc3F)COC[C@H]2CS1` (relative stereo) [Example 26, N-[3-((4aS*,7aS*)-2-amino-4a,5-dihydro-4H-furo[3,4-d][1,3]thiazin-7a-yl)-4-fluorophenyl]-5-chloropyridine-2-carboxamide], 6.9 nM.
As for `NC1=N[C@@]2(c3cc(NC(=O)c4cnc(OC(F)F)cn4)ccc3F)CCOC[C@H]2CS1` (relative stereo) [Example 29, N-[3-((4aS*,8aS*)-2-amino-4a,5,7,8-tetrahydro-4H-6-oxa-3-thia-1-azanaphthalen-8a-yl)-4-fluorophenyl]-5-difluoromethoxypyrazine-2-carboxamide], the figure is 4 nM.
As for `NC1=N[C@@]2(c3cc(NC(=O)c4ccc(Cl)cn4)ccc3F)CCOC[C@H]2CS1` (relative stereo) [Example 30, N-[3-((4aS*,8aS*)-2-amino-4a,5,7,8-tetrahydro-4H-6-oxa-3-thia-1-azanaphthalen-8a-yl)-4-fluorophenyl]-5-chloropyridine-2-carboxamide], the figure is 11 nM.

As a reminder, the IC50 is the point on the concentration scale where inhibition reaches its midpoint.
